According to ChEMBL document CHEMBL5608163, “Structure modification of anoplin for fighting resistant bacteria” (Eur J Med Chem, 2024):
In brackets after ≈: the same amount, converted by molar mass. Square brackets hold non-standard residues; d marks the D form. Peptide text beside a SMILES is read from it. 2Nal = N[C@@H](Cc1ccc2ccccc2c1)C(=O)O

Legend:
Staphylococcus aureus [1] = test: Antibacterial activity against methicillin resistant Staphylococcus aureus ATCC 33591 assessed as inhibition of bacterial growth incubated for 16 to 20 hrs by broth micro-dilution method; assay type: functional; conditions: time 16-20 hrs
Enterococcus faecium [2] = test: Antibacterial activity against Vancomycin resistant Enterococcus faecium ATCC 700221 assessed as inhibition of bacterial growth incubated for 16 to 20 hrs by broth micro-dilution method; assay type: functional; conditions: time 16-20 hrs
Erythrocyte = test: Hemolytic activity in erythrocytes (unknown origin); assay type: toxicity, cell-based
[3] = Hemolytic activity in human RBC; assay type: toxicity, cell-based, Erythrocyte; conditions: red blood cells
Staphylococcus aureus [4] = test: Antibacterial activity against methicillin-resistant Staphylococcus aureus ATCC 33591 assessed as reduction in bacterial growth incubated for 16 to 24 hrs by agar dilution method; assay type: functional; conditions: time 16-24 hrs
Enterococcus faecium [5] = test: Antibacterial activity against vancomycin resistant Enterococcus faecium NCTC 12204 assessed as reduction in bacterial growth by microdilution broth method; assay type: functional
Escherichia coli [6] = test: Antibacterial activity against Escherichia coli ATCC 25922 assessed as reduction in bacterial growth incubated for 18 to 24 hrs by broth microdilution method; assay type: functional; conditions: time 18-24 hrs
Pseudomonas aeruginosa [7] = test: Antibacterial activity against Pseudomonas aeruginosa ATCC 15442 assessed as reduction in bacterial cell growth incubated for 18 to 24 hrs by two fold serial microdilution method; assay type: functional; conditions: time 18-24 hrs
[8] = Hemolytic activity against Red blood cells (unknown origin) incubated for 1 hr by spectrophotometric analysis; assay type: toxicity, cell-based, Erythrocyte
[9] = tested on: Mycolicibacterium smegmatis; test: Antimycobacterial activity against Mycobacterium smegmatis mc2 155 assessed as reduction in bacterial cell growth incubated for 24 hrs by resazurin dye based broth microdilution method; assay type: functional
Bacillus subtilis = test: Antimicrobial activity against Bacillus subtilis assessed as microbial growth inhibition incubated for 24 hrs by broth micro-dilution method; assay type: functional
Escherichia coli [10] = test: Antibacterial acitivity against Escherichia coli DH5a assessed as bacterial growth inhibition incubated for 24 hrs by broth micro-dilution method; assay type: functional
Zymomonas mobilis = test: Antibacterial activity against Zymomonas mobilis ATCC 10988 assessed as reduction in bacterial growth incubated for 24 hrs by broth micro-dilution method; assay type: functional
Pseudomonas aeruginosa [11] = test: Antimicrobial activity against Pseudomonas aeruginosa assessed as inhibition of microbial growth incubated for 24 hrs by microdilution method; assay type: functional
[12] = Hemolytic activity against human Red blood cells assessed as cell lysis; assay type: toxicity, cell-based, Erythrocyte

Row | SMILES | MIC (Staphylococcus aureus [1]) [µM] | MIC (Enterococcus faecium [2]) [µM] | HC10 (Erythrocyte) [µM] | MIC [9] [µM] | MIC (Bacillus subtilis) [µM] | MIC (Escherichia coli [10]) [µM] | MIC (Zymomonas mobilis) [µM] | MIC (Pseudomonas aeruginosa [11]) [µM] | HC50 [12] [µM] | also measured
1 | CC(C)C[C@H](NC(=O)CN)C(=O)N[C@@H](CC(C)C)C(=O)N[C@@H](CCCCN)C(=O)N[C@@H](CCCNC(=N)N)C(=O)N[C@H](Cc1ccc2ccccc2c1)C(=O)N[C@@H](CCCCN)C(=O)N[C@H](C(=O)N[C@@H](CC(C)C)C(=O)N[C@@H](CC1CCCCC1)C(N)=O)[C@@H](C)O | 28.4 (≈ 36.3 µg/mL) | 3.2 (≈ 4.09 µg/mL) | 74.3 |  |  |  |  |  |  | 
2 | CC[C@@H](C)[C@@H](NC(=O)[C@H](CCCCN)NC(=O)[C@H](CCCCN)NC(=O)[C@H](CC(C)C)NC(=O)[C@H](CC(C)C)NC(=O)CN)C(=O)N[C@@H](CCCCN)C(=O)N[C@H](C(=O)N[C@@H](CC(C)C)C(=O)N[C@@H](CC(C)C)C(N)=O)[C@@H](C)O | 1020 (≈ 1150 µg/mL) | 492 (≈ 554 µg/mL) | 7209 |  |  |  |  |  |  | 
3 | CC[C@@H](C)[C@@H](NC(=O)[C@H](CCCCN)NC(=O)[C@H](CCCCN)NC(=O)[C@H](CC(C)C)NC(=O)[C@H](CC(C)C)NC(=O)CN)C(=O)N[C@@H](CCCCN)C(=O)N[C@@H](CCCCN)C(=O)N[C@@H](CC(C)C)C(=O)N[C@@H](CC(C)C)C(N)=O | 1020 (≈ 1180 µg/mL) | 341 (≈ 393 µg/mL) | 1962.4 |  |  |  |  |  |  | 
4 | CC[C@@H](C)[C@@H](NC(=O)[C@H](CCCNC(=N)N)NC(=O)[C@H](CCCCN)NC(=O)[C@H](CC(C)C)NC(=O)[C@H](CC1CCCCC1)NC(=O)CN)C(=O)N[C@@H](CCCCN)C(=O)N[C@H](C(=O)N[C@@H](CC(C)C)C(=O)N[C@@H](CC1CCCCC1)C(N)=O)[C@@H](C)O |  |  | 225.6 |  |  |  |  |  |  | 
5 | CC(C)C[C@H](NC(=O)[C@H](CC(C)C)NC(=O)[C@H](CCCCN)NC(=O)[C@H](CCCCN)NC(=O)[C@@H](Cc1ccc2ccccc2c1)NC(=O)[C@H](CCCNC(=N)N)NC(=O)[C@H](CCCCN)NC(=O)[C@H](CC(C)C)NC(=O)[C@H](CC1CCCCC1)NC(=O)CN)C(=O)O | 9.5 (≈ 12.4 µg/mL) | 3.2 (≈ 4.18 µg/mL) | 27 |  |  |  |  |  |  | 
6 | CC(C)C[C@H](NC(=O)[C@H](CC(C)C)NC(=O)[C@H](CCCCN)NC(=O)[C@H](CCCCN)NC(=O)[C@H](Cc1ccc2ccccc2c1)NC(=O)[C@H](CCCNC(=N)N)NC(=O)[C@H](CCCCN)NC(=O)[C@H](CC(C)C)NC(=O)[C@H](CCCCN)NC(=O)CN)C(N)=O (H-GKLKR[2Nal]KKLL-NH2) |  |  |  |  |  |  |  |  |  | HC50 [3]: 50.1 µM; MIC (Staphylococcus aureus [4]): 41 µM (≈ 52.5 µg/mL); MIC (Enterococcus faecium [5]): 13.7 µM (≈ 17.5 µg/mL); MIC (Escherichia coli [6]): 9.5 µM (≈ 12.2 µg/mL); MIC (Pseudomonas aeruginosa [7]): 9.5 µM (≈ 12.2 µg/mL); HC50 at 1 h [8]: 50.1 µM
7 | CC[C@H](C)[C@H](NC(=O)[C@H](CCCNC(=N)N)NC(=O)[C@H](CCCCN)NC(=O)[C@H](CCCCN)NC(=O)[C@H](CC(C)C)NC(=O)CN)C(=O)N[C@@H](CCCCN)C(=O)N[C@@H](CCCCN)C(=O)N[C@@H](CC(C)C)C(=O)N[C@@H](CC(C)C)C(N)=O (H-GLKKRIKKLL-NH2) |  |  |  | 13 (≈ 15.5 µg/mL) | 13 (≈ 15.5 µg/mL) | > 174 | 12.6 (≈ 15.1 µg/mL) | 13 | > 174 | 
8 | CC[C@H](C)[C@H](NC(=O)[C@H](Cc1ccccc1)NC(=O)[C@H](CCCCN)NC(=O)[C@H](CC(C)C)NC(=O)[C@H](CC(C)C)NC(=O)CN)C(=O)N[C@@H](CCCCN)C(=O)N[C@@H](CCCNC(=N)N)C(=O)N[C@@H](CC(C)C)C(=O)N[C@@H](CC(C)C)C(N)=O (H-GLLKFIKRLL-NH2) |  |  |  | 4.2 (≈ 5.04 µg/mL) | 167 (≈ 200 µg/mL) | 167 (≈ 200 µg/mL) | 17.4 (≈ 20.9 µg/mL) | 2.5 | > 167 | 
9 | CC[C@H](C)[C@H](NC(=O)[C@H](CCCCN)NC(=O)[C@H](CC(C)C)NC(=O)[C@H](CC(C)C)NC(=O)CN)C(=O)N[C@H](C(=O)N[C@@H](CCCCN)C(=O)N[C@@H](CCCCN)C(=O)N[C@@H](CC(C)C)C(=O)N[C@@H](CC(C)C)C(N)=O)[C@@H](C)CC (H-GLLKIIKKLL-NH2) |  |  |  | 16.7 (≈ 19 µg/mL) | 5.9 (≈ 6.71 µg/mL) | 83.7 (≈ 95.2 µg/mL) | 2.5 (≈ 2.84 µg/mL) | 2.5 | > 167 | 
10 | CC[C@H](C)[C@H](NC(=O)[C@H](CCCCN)NC(=O)[C@H](CC(C)C)NC(=O)[C@H](CC(C)C)NC(=O)CN)C(=O)N[C@H](C(=O)N[C@@H](CCCCN)C(=O)N[C@@H](CCCNC(=N)N)C(=O)N[C@@H](CC(C)C)C(=O)N[C@@H](CC(C)C)C(N)=O)[C@@H](C)CC (H-GLLKIIKRLL-NH2) |  |  |  | 4.3 (≈ 5.01 µg/mL) | 8.6 (≈ 10 µg/mL) | 172 (≈ 200 µg/mL) | 33.9 (≈ 39.5 µg/mL) | 2.6 | > 172 | 
